From patent US7670785B2, “Polynucleotides and polypeptides associated with the development of rheumatoid arthritis” (Bristol-Myers Squibb Company, priority 2001, dated 2010)

Experiments:
[1] = system: GBP-5; assay: GBP-5 mRNA in stimulated mouse fibroblasts, real time PCR; format: cell-based; settings: 2 or 8 hours, TNFα 10 ng/ml or PMA 10 ng/ml, FIG. 90B
Experimental: (§1) Wild type 3T3 fibroblasts and immortalized fibroblast lines derived from p65 and IkBα germline knockouts were cultured in DMEM with 10% calf serum, glutamax and penicillin/streptomycin. Primary embryonic fibroblasts derived from germline knockouts of relB and p50 were cultured in DMEM with 10% fetal calf serum, glutamax and penicillin/streptomycin. The fibroblasts were plated at 5×10^5/well of a 6 well plate and cultured overnight at 37° C. in 5% CO2. Cells were stimulated for 2 or 8 hours with either medium, human TNFα (10 ng/ml) or PMA (10 ng/ml). At each time point, cells were harvested using trypsin/EDTA, washed one time with PBS, and stored at −80° C.
(§2) Total RNA was isolated from cells using the RNeasy® Kit from Qiagen (Valencia, Calif.), including the on-the-column DNase digestion procedure. RNA quality and quantity were evaluated using UV spectrometry. Total RNA was used for first-strand cDNA synthesis using the SuperScript™ First-Strand Synthesis System for RT-PCR (Invitrogen, Carlsbad, Calif.) following the manufacturer's instructions with 50 ng of random hexamers.
(§3) Reactions were performed in a total volume of 40 μl. […]
(§4) A relative value for the initial target concentration in each reaction was determined using the TaqMan 5700 software. […]

[2] = system: Fc gamma RI; settings: RA patients, monocytes; cited from earlier work
[3] = target: T1, TNF-α (Homo sapiens, UniProt P01375); settings: cited from earlier work
T1 construct: host or cells: RA patients (in vivo)
T1 sequence (P01375 77-233 limits assumed): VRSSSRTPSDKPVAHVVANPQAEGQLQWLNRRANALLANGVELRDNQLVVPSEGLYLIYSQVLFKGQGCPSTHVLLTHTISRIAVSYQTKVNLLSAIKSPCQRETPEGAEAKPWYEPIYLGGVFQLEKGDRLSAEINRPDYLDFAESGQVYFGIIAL

[4] = system: IL-1; settings: RA patients; cited from earlier work
[5] = system: GBP-1; assay: GBP-1 expression in stimulated human microvascular endothelial cells, microarray; format: cell-based; settings: three donors, TNFα 10, IL-1β 10, VEGF 30, bFGF 10 ng/ml, FIG. 93A
Experimental: (§5) Human microvascular endothelial cells from three different donors were obtained from Clonetics (Walkersville, Md.), and cultured in EGM-2 medium (Clonetics). Cells were cultured in 100 mm dishes coated with mouse type IV collagen and allowed to grow to approximately 80% confluency. The cells were then stimulated for 1, 6, or 24 hours with either medium, TNFα (10 ng/ml), or IL-1β (10 ng/ml). At each time point, mRNA was isolated, labeled and used to probe Affymetrix HG_U95Av2 and HG_U95B chips.
(§6) For VEGF and bFGF stimulations, microvascular endothelial cells from three independent donors were obtained, cultured in 100 mm dishes coated with mouse type IV collagen and allowed to grow to 30% confluency. At this time, the media was replaced with DMEM containing 2% fetal calf serum, and the cells were cultured an additional day. The cells were stimulated for 1, 6, or 24 hours with either medium, VEGF (30 ng/ml) or bFGF (10 ng/ml). At each time point, mRNA was isolated, labeled, and used to probe Affymetrix chips as described above.

[6] = system: GBP-5; assay: GBP-5 expression in stimulated human microvascular endothelial cells, microarray; format: cell-based; settings: for donors whose cells upregulated GBP-5 mRNA: human microvascular endothelial cells from three donors; for induction of GBP-5: human microvascular endothelial cells, three donors, TNFα 10, IL-1β 10 ng/ml, FIG. 93B
Experimental: as §5, §6

[7] = system: GBP-1; assay: GBP-1 mRNA in stimulated synovial fibroblasts from rheumatoid arthritis patients, microarray; format: cell-based, human; settings: RA synovial fibroblasts; TNFα, IL-1α, IL-17 10 ng/ml, IL-17b-Ig 5 ng/ml; FIG. 94A
Experimental: Synovial fibroblasts were obtained from Cell Applications, Inc. (San Diego, Calif.), and cultured for 1, 6, or 24 hours with either medium, TNFα (10 ng/ml), IL-1α (10 ng/ml, Peprotech), IL-17 (10 ng/ml, R&D Systems, Minneapolis, Minn.), or IL-17b-Ig fusion protein (5 ng/ml). The IL-17b protein was produced by fusing the full length IL-17b sequence (Shi et al., J. Biol. Chem. 275:19167-19176 (2000)) to the human IgG1 Fc region. At each time point, mRNA was isolated, labeled, and used to probe Affymetrix HG_U95Av2, HG_U95B, HG_U95C, HG_U95D, and HG_U95E chips.

[8] = system: GBP-5; assay: GBP-5 mRNA in resting and stimulated THP-1 monocytes, microarray; format: cell-based, human; settings: IFN-γ 100 U/ml, TNFα 10 ng/ml, LPS 100 ng/ml, FIG. 92B
Experimental: (§7) For the microarray analyses, THP-1 cells (10^7/group) were cultured at 10^6/ml as above for 1, 6, 24, or 48 hours with either medium, TNFα (10 ng/ml), IFN-γ(100 U/ml), or LPS (100 ng/ml). At each time point, mRNA was isolated, labeled, and used to probe Affymetrix HG_U95Av2, HG_U95B, and HG_U95C chips.

[9] = system: mouse GBP-1; assay: GBP-1 mRNA in stimulated mouse fibroblasts, real time PCR; format: cell-based; settings: 2 or 8 hours, TNFα 10 ng/ml or PMA 10 ng/ml, FIG. 90A
Experimental: as §1, §2, §3, §4

[10] = system: GBP-1; assay: GBP-1 mRNA in resting and stimulated THP-1 monocytes, microarray; format: cell-based, human; settings: IFN-γ 100 U/ml, TNFα 10 ng/ml, LPS 100 ng/ml, FIG. 92A
Experimental: as §7

[11] = system: GBP-5; assay: LPS-induced GBP-5 mRNA in THP-1 monocytes, real time PCR; format: cell-based, human; settings: THP-1, LPS 100 ng/ml, 2 hour stimulation
Experimental: (§8) For real time PCR analyses, THP-1 cells (10^7/group) were cultured at 10^6/ml in RPMI containing 10% heat inactivated fetal calf serum, 2 mM L-glutamine with either medium, BMS-205820 (2 uM), or dexamethasone (100 nM) for 30 minutes at 37° C. in 5% CO2. LPS was added to each group (100 ng/ml), and the incubation continued for 0.5-8 hr. At the end of each time point, cells were pelleted, washed one time with 10 ml PBS, and stored at −80° C.
as §2
(§9) Reactions were performed in a total volume of 40 μl. The master mix contained SYBR Green I Dye, 50 mM Tris-HCl pH8.3, 75 mM KCl, DMSO, Rox reference dye, 5 mM MgCl2, 2 mM dNTP, Platinum Taq High Fidelity (1 U/reaction), and 0.5 μM of each primer. Eight microliters of diluted cDNA was used in each PCR reaction. […]
as §4

[12] = system: GBP-1; assay: LPS-induced GBP-1 mRNA in THP-1 monocytes, real time PCR; format: cell-based, human; settings: THP-1, LPS 100 ng/ml, 2 hour stimulation
Experimental: as §8, §2, §9, §4

[13] = target: T2, IL-15 (Mus musculus, UniProt P48346); settings: administration to mice; cited from earlier work
T2 construct: host or cells: mice (collagen-induced arthritis model)
T2 sequence (P48346 49-162): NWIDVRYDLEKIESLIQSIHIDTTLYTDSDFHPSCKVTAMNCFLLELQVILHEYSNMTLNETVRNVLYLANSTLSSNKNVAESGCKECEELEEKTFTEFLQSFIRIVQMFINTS

## CCCCCCCCCCCCCC(=O)O[C@@H]1[C@@H](C)[C@@]2(O)[C@@H](C=C(CO)C[C@]3(O)C(=O)C(C)=C[C@@H]23)[C@@H]2C(C)(C)[C@]12OC(C)=O [PMA, reference compound]
[1]
  steady-state level of GBP-5 mRNA: not

## C[C@]12C=CC(=O)C=C1CC[C@@H]1[C@@H]2[C@@H](O)C[C@@]2(C)[C@H]1CC[C@]2(O)C(=O)CO [prednisolone]
[2]
  Fc gamma RI expression: induced down-regulation

## Etanercept
[3]; RA patients
  number of swollen joints: significant decrease
  numbers of T cells and plasma cells in the synovium: significant decrease
[3]; treated patients
  expression of VCAM-1 and IL-1 in the synovium: decrease

## IL-1Ra: natural inhibitor of IL-1, recombinant human IL-1 receptor antagonist
[4]
  clinical symptoms and rate of progressive joint damage: significantly reduced

## IL-1β: cytokine used as stimulus of endothelial cells
[5]
  GBP-1 expression: strongly induced
[6]
  donors whose cells upregulated GBP-5 mRNA: Only one donor
  induction of GBP-5: variable

## IL-17: cytokine used as stimulus of synovial fibroblasts (R&D Systems)
[7]
  GBP-1 mRNA induction: not

## TNFα
[1]
  steady-state level of GBP-5 mRNA: induced increased steady-state levels
[5]
  GBP-1 expression: strongly induced
[8]
  steady state level of GBP-5 mRNA: Much lower levels of expression were induced
[9]
  steady-state level of GBP-1 mRNA: induced increased steady-state levels
[6]
  donors whose cells upregulated GBP-5 mRNA: two out of three
  induction of GBP-5: variable
[10]
  steady state level of GBP-1 mRNA: Much lower levels of expression were induced
[7]
  GBP-1 mRNA induction: induced at 1 and 6 hours

## VEGF
[5]
  GBP-1 expression: No induction

## basic FGF: growth factor used as stimulus of endothelial cells
[5]
  GBP-1 expression: No induction

## interferon-γ: cytokine used as stimulus of THP-1 monocytes
[8]
  steady state level of GBP-5 mRNA: strongly induced
[10]
  steady state level of GBP-1 mRNA: strongly induced

## lipopolysaccharide [LPS, reference compound]
[8]
  steady state level of GBP-5 mRNA: Much lower levels of expression were induced
[11]
  steady-state mRNA level of GBP-5: significantly increased
[12]
  steady-state mRNA level of GBP-1: significantly increased
[10]
  steady state level of GBP-1 mRNA: Much lower levels of expression were induced

B1: IL-1a: cytokine used as stimulus of synovial fibroblasts (Peprotech) (protein, UniProt P01583 113-271, looked up)
Interleukin-1 alpha: SAPFSFLSNVKYNFMRIIKYEFILNDALNQSIIRANDQYLTAAALHNLDEAVKFDMGAYKSSKDDAKITVILRISKTQLYVTAQDEDQPVLLKEMPEIPKTITGSETNLLFFWETHGTKNYFTSVAHPNLFIATKQDYWVCLAGGPPSITDFQILENQA
[7]
  GBP-1 mRNA induction: induced at 1 and 6 hours

B2: IL-17b: full length IL-17b sequence fused to the human IgG1 Fc region (protein)
chain: QPRSPKSKRKGQGRPGPLAPGPHQVPLDLVSRMKPYARMEEYERNIEEMVAQLRNSSELAQRKCEVNLQLWMSNKRSLSPWGYSINHDPSRIPVDLPEARCLCLGCVNPFTMQEDRSMVSVPVFSQVPVRRRLCPPPPRTGPCRQRAVMETIAVGCTCIF
[7]
  GBP-1 mRNA induction: not

B3: soluble IL-15 receptor alpha chain: soluble IL-15 receptor alpha chain administered to mice (protein, UniProt Q60819 33-205, looked up)
extracellular domain: GTTCPPPVSIEHADIRVKNYSVNSRERYVCNSGFKRKAGTSTLIECVINKNTNVAHWTTPSLKCIRDPSLAHYSPVPTVVTPKVTSQPESPSPSAKEPEAFSPKSDTAMTTETAIMPGSRLTPSQTTSAGTTGTGSHKSSRAPSLAATMTLEPTASTSLRITEISPHSSKMTK
modifications: extracellular domain
notes: soluble IL-15 receptor alpha chain administered to mice
[13]
  collagen-induced arthritis: prevented
